Patent US20210045385A1, “PYRIDAZINONE-SUBSTITUTED KETOXIMES AS HERBICIDES” (FMC Corporation, priority 2018, published 2021)

Assays:
Type in all cases: in vivo
[1] = test system: Italian ryegrass (Lolium mutiflorum); test: Test C postemergence, visual plant response rating
In short: (§1)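 Compounds in a non-phytotoxic solvent with surfactant were applied as a directed soil spray preemergence or to 2–10 cm, one- to two-leaf plants postemergence, in loam–sand soil. After about 10 d in a greenhouse, injury was visually rated against untreated controls on a 0–100 scale (100 = complete control).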

[2] = test system: galium (catchweed bedstraw, Galium aparine); test: Test C postemergence, visual plant response rating
In short: as §1

[3] = test system: pigweed (Amaranthus retroflexus); test: Test C postemergence, visual plant response rating
In short: as §1

[4] = test system: barnyardgrass (Echinochloa crus-galli); test: Test C postemergence, visual plant response rating
In short: as §1

[5] = test system: foxtail, giant (giant foxtail, Setaria faberi); test: Test C postemergence, visual plant response rating
In short: as §1

kochia (Bassia scoparia) [6] = test: Test C postemergence, visual plant response rating
In short: as §1

corn (Zea mays) = test: Test C postemergence, visual plant response rating
In short: as §1

[7] = test system: wheat (Triticum aestivum); test: Test C postemergence, visual plant response rating
In short: as §1

[8] = test system: ragweed (common ragweed, Ambrosia artemisiifolia); test: Test C postemergence, visual plant response rating
In short: as §1

[9] = test system: blackgrass (Alopecurus myosuroides); test: Test C postemergence, visual plant response rating
In short: as §1

[10] = test system: duck salad (Heteranthera limosa); test: Test D flooded paddy test, visual plant response rating; details: 250 g ai/ha, scale 0 to 100 (0 no effect, 100 complete control), 13 to 15 d
In short: (§2)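 2-leaf plants, flooded 3 cm, cpd into paddy water; greenhouse 13–15 d; visual rating vs controls, 0 = no effect, 100 = complete control; dash = no result.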

[11] = test system: barnyardgrass (Echinochloa crus-galli); test: as above; details: 250 g ai/ha, scale 0 to 100 (0 no effect, 100 complete control), 13 to 15 d
In short: as §2

rice (Oryza sativa) = test: as above; details: 250 g ai/ha, scale 0 to 100 (0 no effect, 100 complete control), 13 to 15 d
In short: as §2

[12] = test system: sedge umbrella (small-flower umbrella sedge, Cyperus difformis); test: as above; details: 250 g ai/ha, scale 0 to 100 (0 no effect, 100 complete control), 13 to 15 d
In short: as §2

[13] = test system: Italian ryegrass (Lolium mutiflorum); test: Test C preemergence, visual plant response rating
In short: as §1

[14] = test system: pigweed (Amaranthus retroflexus); test: Test C preemergence, visual plant response rating
In short: as §1

[15] = test system: barnyardgrass (Echinochloa crus-galli); test: Test C preemergence, visual plant response rating
In short: as §1

[16] = test system: foxtail, giant (giant foxtail, Setaria faberi); test: Test C preemergence, visual plant response rating
In short: as §1

kochia (Bassia scoparia) [17] = test: Test C preemergence, visual plant response rating
In short: as §1

[18] = test system: ragweed (common ragweed, Ambrosia artemisiifolia); test: Test C preemergence, visual plant response rating
In short: as §1

[19] = Test C, postemergence, 125 g ai/ha
[20] = Test C, 31 g ai/ha, 0 is no effect, 100 is complete control
[21] = Test C, 125 g ai/ha, 0 is no effect, 100 is complete control
[22] = Test C, postemergence, 31 g ai/ha

Structure (SMILES)	Ryegrass, Italian plant response rating (0 to 100 scale) ([1]; Postemergence, 31 g ai/ha)	Ryegrass, Italian plant response rating (0 to 100 scale) [1, 19]	Galium plant response rating (0 to 100 scale) [2, 19]	Pigweed plant response rating (0 to 100 scale) ([3]; Postemergence, 31 g ai/ha)	Pigweed plant response rating (0 to 100 scale) [3, 19]	Barnyardgrass plant response rating (0 to 100 scale) [4, 19]	Foxtail, Giant plant response rating (0 to 100 scale) [5, 19]	Kochia plant response rating (0 to 100 scale) (kochia (Bassia scoparia) [6]; [19])	Corn plant response rating (0 to 100 scale) (corn (Zea mays); [19])	Wheat plant response rating (0 to 100 scale) ([7]; Postemergence, 31 g ai/ha)	Wheat plant response rating (0 to 100 scale) [7, 19]	Ragweed plant response rating (0 to 100 scale) ([8]; Postemergence, 31 g ai/ha)	Ragweed plant response rating (0 to 100 scale) [8, 19]	Blackgrass plant response rating (0 to 100 scale) [9, 19]	Plant response rating, Ducksalad (Flood) [10]	Plant response rating, Barnyardgrass (Flood) [11]	Plant response rating, Rice (Flood) (rice (Oryza sativa))	Plant response rating, Sedge, Umbrella (Flood) [12]	Ryegrass, Italian plant response rating (0 to 100 scale) [13, 20]	Pigweed plant response rating (0 to 100 scale) [14, 20]	other results
C#CCO/N=C(/c1ccc(F)c(Br)c1)c1c(O)c(C)nn(C)c1=O [Compound 163]	50	90	90	40	70	50	70	50	30	60	80	30	60	60	0	0	0	0	70	30	Galium plant response rating (0 to 100 scale) ([2]; Postemergence, 31 g ai/ha): 70; Barnyardgrass plant response rating (0 to 100 scale) ([4]; Postemergence, 31 g ai/ha): 20; Foxtail, Giant plant response rating (0 to 100 scale) ([5]; Postemergence, 31 g ai/ha): 20; Kochia plant response rating (0 to 100 scale) (kochia (Bassia scoparia) [6]; Postemergence, 31 g ai/ha): 30; Corn plant response rating (0 to 100 scale) (corn (Zea mays); Postemergence, 31 g ai/ha): 0; Blackgrass plant response rating (0 to 100 scale) ([9]; Postemergence, 31 g ai/ha): 20; Ryegrass, Italian plant response rating (0 to 100 scale) ([13]; 125 g ai/ha): 100; Pigweed plant response rating (0 to 100 scale) ([14]; 125 g ai/ha): 50; Barnyardgrass plant response rating (0 to 100 scale) ([15]; 125 g ai/ha): 30; Barnyardgrass plant response rating (0 to 100 scale) [15, 20]: 0; Foxtail, Giant plant response rating (0 to 100 scale) ([16]; 125 g ai/ha): 50; Foxtail, Giant plant response rating (0 to 100 scale) [16, 20]: 10; Kochia plant response rating (0 to 100 scale) (kochia (Bassia scoparia) [17]; 125 g ai/ha): 50; Kochia plant response rating (0 to 100 scale) (kochia (Bassia scoparia) [17]; [20]): 0; Ragweed plant response rating (0 to 100 scale) ([18]; 125 g ai/ha): 0; Ragweed plant response rating (0 to 100 scale) [18, 20]: 0
C#CCO/N=C(\c1cccc(/C=C\Cl)c1)c1c(O)c(C)nn(C)c1=O [Compound 264]	0	70	70	40	60	50	60	70	0	20	50	40	60	60	0	0	0	0	0	0	Galium plant response rating (0 to 100 scale) ([2]; Postemergence, 31 g ai/ha): 50; Barnyardgrass plant response rating (0 to 100 scale) ([4]; Postemergence, 31 g ai/ha): 10; Foxtail, Giant plant response rating (0 to 100 scale) ([5]; Postemergence, 31 g ai/ha): 10; Kochia plant response rating (0 to 100 scale) (kochia (Bassia scoparia) [6]; Postemergence, 31 g ai/ha): 40; Corn plant response rating (0 to 100 scale) (corn (Zea mays); Postemergence, 31 g ai/ha): 10; Blackgrass plant response rating (0 to 100 scale) ([9]; Postemergence, 31 g ai/ha): 30; Ryegrass, Italian plant response rating (0 to 100 scale) [13, 21]: 90; Pigweed plant response rating (0 to 100 scale) [14, 21]: 30; Barnyardgrass plant response rating (0 to 100 scale) [15, 20]: 0; Barnyardgrass plant response rating (0 to 100 scale) [15, 21]: 0; Foxtail, Giant plant response rating (0 to 100 scale) [16, 20]: 0; Foxtail, Giant plant response rating (0 to 100 scale) [16, 21]: 20; Kochia plant response rating (0 to 100 scale) (kochia (Bassia scoparia) [17]; [20]): 0; Kochia plant response rating (0 to 100 scale) (kochia (Bassia scoparia) [17]; [21]): 0; Ragweed plant response rating (0 to 100 scale) [18, 20]: 0; Ragweed plant response rating (0 to 100 scale) [18, 21]: 30
C#CCO/N=C(\c1cc(C)cc(Cl)c1)c1c(O)c(C)nn(C)c1=O [Compound 155]	90	100	90	50	100	80	90	80	20	0	60	90	100	90	30	15	0	45	40	40	Galium plant response rating (0 to 100 scale) [2, 22]: 90; Barnyardgrass plant response rating (0 to 100 scale) [4, 22]: 50; Foxtail, Giant plant response rating (0 to 100 scale) [5, 22]: 80; Kochia plant response rating (0 to 100 scale) (kochia (Bassia scoparia) [6]; [22]): 70; Corn plant response rating (0 to 100 scale) (corn (Zea mays); [22]): 0; Blackgrass plant response rating (0 to 100 scale) [9, 22]: 30; Ryegrass, Italian plant response rating (0 to 100 scale) ([13]; 125 g ai/ha): 100; Pigweed plant response rating (0 to 100 scale) ([14]; 125 g ai/ha): 100; Barnyardgrass plant response rating (0 to 100 scale) ([15]; 125 g ai/ha): 100; Barnyardgrass plant response rating (0 to 100 scale) [15, 20]: 70; Foxtail, Giant plant response rating (0 to 100 scale) ([16]; 125 g ai/ha): 90; Foxtail, Giant plant response rating (0 to 100 scale) [16, 20]: 80; Kochia plant response rating (0 to 100 scale) (kochia (Bassia scoparia) [17]; 125 g ai/ha): 90; Kochia plant response rating (0 to 100 scale) (kochia (Bassia scoparia) [17]; [20]): 0; Ragweed plant response rating (0 to 100 scale) ([18]; 125 g ai/ha): 90; Ragweed plant response rating (0 to 100 scale) [18, 20]: 70
